Source: patent US8337906B2, “Nasal composition” (priority 2006, dated 2012)

Assays:
Assay type in all cases: cell-based
[1] = test system: Pseudomonas aeruginosa (PAO1); experiment: Plate based assay, planktonic growth (OD600); conditions: dilutions 0.010% to 10.000%
Experimental: (§1) The anti-bacterial properties of ascorbic acid were evaluated by testing the effect of dilutions of the material on both biofilm and planktonic growth forms of a Pseudomonas aeruginosa isolate that was obtained from patients with cystic fibrosis. Pseudomonas aeruginosa is a common pathogen isolated from the sinuses of patients with chronic rhinosinusitis. The results of this evaluation as shown graphically in FIG. 1.
(§2) Known concentrations of the bacteria were placed in the 96 well culture plates. Dilutions of ascorbic acid (0% (Control), 0.010%, 0.033%, 0.100%, 0.330%, 1.000%, 3.330%, and 10.000%) were added to predetermined wells. […] The bacterial growth was measured both on the pegs as a biofilm and in the wells as planktonic cells.
(§3) More specifically, both bacterial planktonic and biofilm growth were determined using a modification of the plate based assay described by “Moskowitz et al. (Moskowitz S M, Foster J M, Emerson J, et al. Clinically feasible biofilm susceptibility for isolates of Pseudomonas aeruginosa from patients with cystic fibrosis. J. Clin. Microbiol. 2004, 42: 1915-1922). […] The original culture plate was read at OD600 to determine planktonic growth. […] The lid containing the pegs was then removed from the eluted crystal violet and read at 595 nm using a plate reader (Microplate Reader 680, Bio-Rad Hercules, Calif.). […]

[2] = test system: Pseudomonas aeruginosa (PAO1) biofilm; experiment: Peg-lid biofilm formation assay (crystal violet, 595 nm); conditions: dilutions 0.010% to 10.000%
Experimental: as §1, §2, §3

[3] = test system: human sinonasal mucosa cilia; experiment: Cilia beat frequency (CBF) in human sinonasal mucosa explants
Excerpt: […] were subjected to concentrations of the nasal spray solution to test the effect of the product on the cilia beat frequency (CBF). The samples were microscopically visualized and the images captured at a rate of 250 frames per second using digital image sampling. The samples were first visualized for two to three seconds every minute for five minutes to establish a baseline Cilia Beating Rate. The samples were then subjected to dilutions of the formulation and the effect on the beating rate was measured by comparing this rate to the baseline rate. The results of the measured CBF are seen in FIG. 2.
More specifically, using a dual temperature controlled perfusion chamber, differential interference contrast microscopy, and high speed digital video, epithelial ciliary function was analyzed as described previously (Schipor I, Palmer I N, Cohen A S, Cohen N A. Quantification of ciliary beat frequency in sinonasal epithelial cells using differential interference contrast microscopy and high speed digital video imaging. Am J Rhino 12006; 20: 124-7). Residual human sinonasal mucosa from surgery was placed in ice cold Locke Ringer's solution [136 mM Nacl, 5.6 mM KCI, 10 mM HEPES, 14.3 mM NaHCO, 1.2 mM MgCl2, 2.2 mM CaCl2 and 11.5 mM dextrose, pH 7.35] for transport. Explants were placed in a glass perfusion chamber on a thermostatically controlled stage and held in place with a nylon grid (1.5 mm) whose outer frame is snapped into the inside of the perfusion chamber. The stage and perfusate were maintained at a temperature between 35.5° C. and 37° C. with a dual channel heater (Warner Inst., Hamden Conn.). […]
Images were visualized using a Leica DMLFSA microscope set on an air table (TMC, Peabody, Mass.) using a water immersion 63× objective and differential interference contrast (DIC) optics (Leica Microsystems, Inc., Bannockburn, Ill.). […] A two to three second video was recorded every minute for 5 minutes to establish a baseline frequency. […] The video images were written to a PCI 2.2 board and then analyzed using Midas Professional Analyst video imaging processing software (XCitex, Cambridge, Mass.).
Beating cilia were analyzed using the 1-D line tracking algorithm included in the motion analysis software. […] The software captured the motion history within the analysis grid for the duration of the video and recorded the gray scale intensity variation as a function of time. […] The frequency was calculated as the inverse of the peak-to-peak distance of this waveform. For each sample, at least three areas of beating cilia within the same field were analyzed and the reported frequencies represent the arithmetic means of these values. […]

In the case of `O=C1O[C@H]([C@@H](O)CO)C(O)=C1O` [ascorbate, ascorbic acid], the “inhibition of planktonic form (in words)” value [1] is reported as “dose dependent inhibition”, the “inhibition of biofilm form (in words)” value [2] is reported as “dose dependent inhibition” and the “sinonasal CBF with increasing concentration (in words)” value ([3]; 0.01% to 0.1%) is reported as “increasing trend”. The “increase in CBF” value ([3]; 0.1% ascorbate vs control) was 13.5%, the “increase in mucous transport” value ([3]; 0.1% ascorbate, extrapolated from CBF increase) was about 50% and the CBF ([3]; 0.1% ascorbate, control 11.8 Hz) was 1304 Hz.
